Source: US7160690B2, “Nitrate sensor” (Arete Associates, priority 2001, dated 2007)
Where two headings read alike, the source gives them in different places.

Assays:
FAD = details: 0 to 20 ppm nitrate; FIG. 10, data line 38
Protocol: (§1) To further investigate the quenching of Mo-MPT 10 by nitrate 30, a comparison study was performed comparing quenching of Mo-MPT 10 versus FAD 14 by nitrate 30. […] The data line labeled 38 represents quenching of FAD 14, while the data line labeled 40 represents quenching of Mo-MPT 10.

[1] = test system: molybdenum-molybdopterin (Mo-MPT) center of nitrate reductase; details: for lowest nitrate concentration at which quenching of the emission signal is observed: FIG. 8
Protocol: Instead, the biosensor method of this invention uses fluorescence detection to sense nitrate 30 levels.
Once the Mo-MPT 10 is obtained, its initial fluorescence signal is measured.
The quenched fluorescence (Q) is a function of the maximum possible quenching at an infinite nitrate concentration (Qmax) and the affinity of nitrate for its binding site (Kd) in the vicinity of its binding site, or Mo-MPT 10. Thus, it follows Q=(Q max [nitrate])/(Kd+[nitrate]) where: • Q is the quenched fluorescence; • Qmax is maximal quenching at infinite concentration of nitrate; and • Kd is nitrate affinity for the binding site. Quenching can also be considered in terms of: F=Fo−Q where: • F is the fluorescence in the presence of nitrate; • Fo is the fluorescence in the absence of nitrate; and • Q is the quenched fluorescence.
The data was used to calculate Qmax and Kd based on the above equations.
as §1

nitrate reductase = details: read-out: Michaelis constant (Km) of nitrate reduction; nitrate concentration at which the reaction is half maximal; cited from earlier work

SMILES: O=[N+]([O-])O [nitrate]
- type of fluorescence quenching of FAD by nitrate / interaction (FAD): no specific interaction
- type of fluorescence quenching of Mo-MPT by nitrate ([1]; 0 to 4 ppm nitrate, FIG. 10, data line 40): static quenching
- Qmax (maximal quenching at infinite concentration of nitrate) ([1]; fluorescence at 440 nm, FIG. 9, exceeds unity, believed to be an experimental artifact): 1.07
- lowest nitrate concentration at which quenching of the emission signal is observed ([1]; nitrate added at 0.3 ppm to 3.4 ppm): 0.3 ppm
- Kd ([1]; read-out: Kd (nitrate affinity for the binding site, Mo-MPT), fluorescence at 440 nm, fit of Q=(Qmax[nitrate])/(Kd+[nitrate]), FIG. 9): 20 µM
- lowest nitrate concentration at which quenching of the emission signal is observed ([1]; same as 0.3 ppm): 23 µmol
- Km (nitrate reductase): 13 µM
